Experimental data published in patent publication US20240270713A1, “NOVEL COMPOUND EXHIBITING THERAPEUTIC EFFECT ON INFLAMMATORY DISEASE AS P38 MAP KINASE INHIBITOR” (PRAZERTHERAPEUTICS INC., priority 2021, published 2024).

Key:
Type in all cases: cell-based
TNFα = TNFα inhibitory ability by cellular inflammatory response (supernatant, antibody-coated plate), Raw264.7 cells; conditions: Mus musculus, 1 μM compound 24 hours, then 100 ng/ml LPS 24 hours, supernatant protein
Protocol: Evaluation of TNFα inhibitory ability by cellular inflammatory response
(§1) In order to identify inhibition of p-p38 MAPK, inhibition of p38 MAPK was identified after treating each compound to Raw264.7 cells obtained by converting macrophages that induces inflammation according to p-p38 MAPK activity cancerous cells. Briefly, Raw264.7 cells were cultured in Dulbecco's modified Eagle Medium supplemented with 10% fetal bovine serum and penicillin/streptomycin (100 U/ml). Raw264.7 cells were treated with 1 μM of Compounds 1 to 5 according to the present disclosure in a culture dish respectively and cultured for 24 hours in a CO2 incubator, and then treated with 100 ng/ml of LPS, followed by additional culture for 24 hours in a CO2 incubator.
After the cell culture was completed according to the experimental conditions, the supernatant was obtained and centrifuged for 3 minutes at 1200 rpm. The centrifuged supernatant was dispensed into an antibody-coated plate, reacted at room temperature for 2 hours, and washed with PBS-T (0.5% tween 20 in PBS). After dispensing detection antibody including HRP, a reaction was performed at room temperature for 1 hour, and the amount of protein was checked at a wavelength of 450 nm, the results of which are shown in Table 7 below.

IL-1β mRNA [1] = experiment: Cytokine mRNA expression inhibitory ability, IL-1β, LPS-treated Raw264.7 cells; conditions: 1 μM compound 24 hours, then 100 ng/ml LPS 24 hours
Protocol: Evaluation of cytokine mRNA expression inhibitory ability according to inflammatory response
as §1
After cell culture was terminated according to the experimental conditions, cells were washed with cold phosphate buffered saline (PBS). The cells were then collected and centrifuged at 1200 rpm for 3 minutes. RNA was extracted according to the method provided in the Hybrid-R total RNA purification kit (GeneAll, 305-101). After measuring the concentration and purity of RNA using Nanodrop, cDNA was synthesized according to the method provided in TOPscript RT DryMIX (Enzynomics, RT200). After a reaction at 95° C. for 3 minutes using SYBR Green Mix along with primer, cDNA was subjected to repetitive reactions 30 times at 95° C. for 10 seconds, at 55° C. for 10 seconds, and at 72° C. for 30 seconds to determine the RNA expression level. The results are shown in Tables 5 and 6 below and FIGS. 1 and 2.

IL-1β mRNA [2] = experiment: Cytokine mRNA expression inhibitory ability, IL-1β, LPS-treated BV2 cells; conditions: 1 μM compound 24 hours, then 1000 ng/ml LPS 24 hours
Protocol: (§2) Evaluation of cytokine mRNA expression inhibitory ability by inflammatory response
(§3) In order to identify inhibition of p-p38 MAPK, the inhibition of p38 MAPK was identified by treating each compound to BV2 cells obtained by converting microglia that induces inflammation according to p-p38 MAPK activity in the brain into cancerous cells. Briefly, BV2 cells were cultured in Dulbecco's modified Eagle Medium supplemented with 10% fetal bovine serum and penicillin/streptomycin (100 U/ml). BV2 cells were treated with 1 μM of Compounds 4 to 6 according to the present disclosure in a culture dish respectively and cultured for 24 hours in a CO2 incubator, and then treated with 1000 ng/ml of LPS, followed by additional culture for 24 hours in a CO2 incubator.
(§4) After the cell culture was completed according to the experimental conditions, washing was performed with cold phosphate buffered saline (PBS). The cells were then collected and centrifuged at 1200 rpm for 3 minutes. RNA was extracted according to the method provided in the Hybrid-R total RNA purification kit (GeneAllR), 305-101). After measuring the concentration and purity of RNA using Nanodrop, cDNA was synthesized according to the method provided in TOPscript RT DryMIX (Enzynomics, RT200). […]

IL-6 mRNA = experiment: Cytokine mRNA expression inhibitory ability, IL-6, LPS-treated BV2 cells; conditions: 1 μM compound 24 hours, then 1000 ng/ml LPS 24 hours
Protocol: as §2, §3, §4

p-p38 MAPK = p-p38 MAPK (Homo sapiens (Human), UniProt Q16539); experiment: p38 MAPK protein inhibitory ability in brain-derived cells (p-p38 immunoblot, SH-SY5Y)
Chain of p-p38 MAPK (Q16539 whole entry): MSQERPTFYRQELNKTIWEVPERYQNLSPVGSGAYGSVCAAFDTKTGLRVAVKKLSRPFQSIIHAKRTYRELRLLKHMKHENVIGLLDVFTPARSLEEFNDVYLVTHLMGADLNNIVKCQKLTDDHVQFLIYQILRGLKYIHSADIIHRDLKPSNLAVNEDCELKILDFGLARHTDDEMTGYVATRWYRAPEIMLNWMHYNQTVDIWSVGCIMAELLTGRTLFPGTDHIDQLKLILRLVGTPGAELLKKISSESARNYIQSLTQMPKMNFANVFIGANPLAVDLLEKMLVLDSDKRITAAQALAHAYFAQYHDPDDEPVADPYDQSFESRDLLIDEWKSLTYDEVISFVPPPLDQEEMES
Protocol: Evaluation of p38 MAPK protein inhibitory ability in brain-derived cells
In order to identify inhibition of p-p38 MAPK in brain cells, the inhibition of p38 MAPK was identified by inducing inflammation after treating each compound to SH-SYSY cells obtained by converting human neurons into cancerous cells. In short, SH-SY5Y cells were cultured in Minimum essential medium/Eagle's balanced salts supplemented with 10% fetal bovine serum and penicillin/streptomycin (100 U/ml). SH-SY5Y cells were treated with 1 μM of Compounds 4 and 6 according to the present disclosure in a culture dish respectively and cultured for 24 hours in a CO2 incubator, and then treated with 1000 ng/ml of LPS, followed by additional culture for 6 hours in a CO2 incubator.
After cell culture was terminated according to the experimental conditions, cells were washed with cold phosphate buffered saline (PBS). The cells were then collected and centrifuged at 1200 rpm for 3 minutes. The cells in the sediment were lysed with 2X sample buffer (1M Tris-HCl pH 6.8, 50% glycerol, 10% SDS, 2-mercaptoethanol, 1% bromophenol blue) and boiled at 100° C. for 10 minutes. The prepared protein samples were subjected to sodium dodecyl sulfate poly acrylamide gel electrophoresis and transferred to PVDF membrane (Millipore). For a specific binding reaction between the protein in the PVDF membrane and antibody, blocking was performed in a 5% bovine serum albumin (BSA, RMbio) solution. Subsequently, the BSA solution was discarded, and the membrane was washed with PBS-T (0.5% Tween 20 in PBS). The binding reaction of the protein in the membrane and antibody was performed overnight at 4° C. and washed again with PBS-T. Finally, a secondary antibody (Cell signaling Technology) conjugated with horse radish peroxidase (HRP) was diluted in PBS-T and reacted at room temperature for 2 hours. Luminata Forte HRP substrate (Millipore) was used to determine the amount of protein in the membrane, the results of which are shown in Table 8 below.

`Cc1c(F)cc(C(=O)NC2CC2)cc1-c1ccc(C(=O)c2c[nH]c3ccccc23)cn1` [Compound 4, 3-(5-(1H-indole-3-carbonyl)pyridin-2-yl)-N-cyclopropyl-5-fluoro-4-methylbenzamide] was tested, and the inhibition at 1 µM (TNFα) was 76.6%, the “IL-1β mRNA inhibition” value (IL-1β mRNA [1]) was 38.2% and the “IL-1β mRNA inhibition” value (IL-1β mRNA [2]) was 68.5%. The “IL-6 mRNA inhibition” value (IL-6 mRNA) was 52.8%, the “p38 phosphorylation in cells derived from human (result in words)” value (p-p38 MAPK; 1 μM) was “effectively inhibited p38 phosphorylation” and the inhibition at 1 µM (p-p38 MAPK; 1 μM compound 24 hours, then 1000 ng/ml LPS 6 hours) was 74.6%.
